According to ChEMBL document CHEMBL1201862, “PubChem BioAssay data set” (2004):
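Five concentrations, 48 hours, 96-well plates. GI50 marks 50% less growth.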 Active and inactive are the calls of the source. No stated cut-off is given here; in the data, active = GI50 up to about 1.1 µM and inactive = higher.

Assays:
Experiment in all cases: growth of human tumour cells (NCI), 48 h
HOP-92 = test system: HOP-92
NCI-H460 = test system: NCI-H460
RXF 393 = test system: RXF 393
TK-10 = test system: TK-10
CAKI-1 = test system: CAKI-1
SF-539 = test system: SF-539
SNB-19 = test system: SNB-19
SN12C = test system: SN12C
HT-29 = test system: HT-29
COLO 205 = test system: COLO 205
HCT-15 = test system: HCT-15
SF-295 = test system: SF-295
CCRF-CEM = test system: CCRF-CEM
MDA-N = test system: MDA-N
SNB-75 = test system: SNB-75
HCC 2998 = test system: HCC 2998
UO-31 = test system: UO-31
RPMI-8226 = test system: RPMI-8226
U-251 = test system: U-251
M14 = test system: M14

Row | SMILES | GI50 (HOP-92) | GI50 (NCI-H460) | GI50 (RXF 393) | GI50 (TK-10) | GI50 (CAKI-1) | GI50 (SF-539) | GI50 (SNB-19) | GI50 (SN12C) | GI50 (HT-29) | GI50 (COLO 205) | GI50 (HCT-15) [µM] | GI50 (SF-295) | GI50 (CCRF-CEM) | GI50 (MDA-N) | GI50 (SNB-75) | GI50 (HCC 2998) | GI50 (UO-31) | GI50 (RPMI-8226) | GI50 (U-251) | GI50 (M14)
1 | COC(=O)c1c(C)cccc1C1CN=NC12Cc1ccccc1C2=O (stereo not given) | > 57.7 µM (inactive) | > 75.9 µM (inactive) | > 100 µM (inactive) | > 100 µM (inactive) | 98.6 µM (inactive) | > 100 µM (inactive) | > 100 µM (inactive) | > 100 µM (inactive) | > 100 µM (inactive) | 60.8 µM (inactive) | 78.3 | 62.2 µM (inactive) | 38.6 µM (inactive) | > 100 µM (inactive) | 65.2 µM (inactive) | > 100 µM (inactive) | 33.1 µM (inactive) | 35.3 µM (inactive) | > 100 µM (inactive) | 20.1 µM (inactive)
2 | Cc1ccc(NC2=NCCO2)c2c1CCC2 | 27.3 µM (inactive) | 27.5 µM (inactive) | 26.8 µM (inactive) | > 100 µM (inactive) | > 100 µM (inactive) | 22 µM (inactive) | 58.9 µM (inactive) | 45 µM (inactive) | 33.3 µM (inactive) | 23.6 µM (inactive) | 44.2 | > 100 µM (inactive) | 37.2 µM (inactive) | 17.6 µM (inactive) | 32.9 µM (inactive) | 32 µM (inactive) | > 100 µM (inactive) | 34.8 µM (inactive) | 39.4 µM (inactive) | 21 µM (inactive)
3 | Oc1ncnc2c1nnn2CCCCCCCCCCCCn1nnc2c(O)ncnc21 | 30 µM (inactive) | 51.8 µM (inactive) | 24.3 µM (inactive) | 24.4 µM (inactive) | > 100 µM (inactive) | 31.7 µM (inactive) | 20.2 µM (inactive) | > 85.5 µM (inactive) | > 100 µM (inactive) | > 83.4 µM (inactive) | > 100 | 14.5 µM (inactive) | > 100 µM (inactive) | > 100 µM (inactive) | > 40.9 µM (inactive) | > 78.7 µM (inactive) | 25.7 µM (inactive) | > 100 µM (inactive) | 21.5 µM (inactive) | > 100 µM (inactive)
4 | C(=N\NC1=NCCCN1)/c1ccc(-c2cn3cc(/C=N/NC4=NCCCN4)ccc3n2)cc1 | 59 µM (inactive) | 7.23 µM (inactive) | 61.1 µM (inactive) | > 100 µM (inactive) | 37 µM (inactive) | > 61.7 µM (inactive) | > 100 µM (inactive) | > 100 µM (inactive) | 29.3 µM (inactive) | > 100 µM (inactive) | > 100 | > 100 µM (inactive) | > 41.9 µM (inactive) | > 100 µM (inactive) | > 81.5 µM (inactive) | > 53.3 µM (inactive) | > 100 µM (inactive) | > 27.9 µM (inactive) | > 88.9 µM (inactive) | > 81.1 µM (inactive)
5 | O=C(O)c1cccc(S(=O)(=O)NN2C(=O)CSC2c2ccccc2)c1 (stereo not given) | > 100 µM (inactive) | > 100 µM (inactive) | > 100 µM (inactive) | > 100 µM (inactive) | > 100 µM (inactive) | > 100 µM (inactive) | > 100 µM (inactive) | > 100 µM (inactive) | > 100 µM (inactive) | > 100 µM (inactive) | > 100 | > 100 µM (inactive) | > 100 µM (inactive) | 74.6 µM (inactive) | > 100 µM (inactive) | > 100 µM (inactive) | > 100 µM (inactive) | 35.3 µM (inactive) | > 100 µM (inactive) | > 100 µM (inactive)
